In patent publication US7183415B2, “Quinoline compound” (Takeda Pharmaceutical Company Limited, priority 2001, dated 2007):

First: Cc1cc2cc(CN3CCCC3)cnc2cc1NC(=O)c1ccc(-c2ccccc2Cl)cc1.Cl
Second: Cc1c(NC(=O)c2ccc(-c3ccccc3Cl)cc2)ccc2cc(CN3CCCC3)cnc12 (hydrate or solvate) [Example 108, 2′-chloro-N-[8-methyl-3-(1-pyrrolidinylmethyl)-7-quinolinyl][1,1′-biphenyl]-4-carboxamide]
The melting point of the first is higher: 283 °C for the first, 128 to 129 °C for the second.

Compared with `Cc1c(NC(=O)c2ccc(-c3ccc4c(c3)OCO4)cc2)ccc2cc(CN3CCCC3)cnc12` (hydrate or solvate) [Example 105, 4-(1,3-benzodioxol-5-yl)-N-[8-methyl-3-(1-pyrrolidinylmethyl)-7-quinolinyl]benzamide], `Cc1c(NC(=O)c2ccc(-c3ccc4c(c3)OCCO4)cc2)ccc2cc(CN3CCCC3)cnc12` (hydrate or solvate) [Example 115, 4-(2,3-dihydro-1,4-benzodioxin-6-yl)-N-[8-methyl-3-(1-pyrrolidinylmethyl)-7-quinolinyl]benzamide] is higher in melting point: 171 to 172 °C for the first, 187 to 188 °C for the second.

`Cc1c(NC(=O)c2ccc(-c3cc4ccccc4o3)cc2)ccc2cc(CN3CCCC3)cnc12` (hydrate or solvate) [Example 106, 4-(1-benzofuran-2-yl)-N-[8-methyl-3-(1-pyrrolidinylmethyl)-7-quinolinyl]benzamide] and `Cc1c(NC(=O)c2ccc(-c3cc4ccccc4s3)cc2)ccc2cc(CN3CCCC3)cnc12` (hydrate or solvate) [Example 120, 4-(1-benzothien-2-yl)-N-[8-methyl-3-(1-pyrrolidinylmethyl)-7-quinolinyl]benzamide] fall in the same range of melting point: 217 to 218 °C for the first, 217 to 218 °C for the second.

First: CSc1ccc(-c2ccc(C(=O)Nc3ccc4cc(CN5CCCC5)cnc4c3C)cc2)cc1 (hydrate or solvate) [Example 110, N-[8-methyl-3-(1-pyrrolidinylmethyl)-7-quinolinyl]-4′-(methylsulfanyl)[1,1′-biphenyl]-4-carboxamide]
Second: CC(=O)c1ccc(-c2ccc(C(=O)Nc3ccc4cc(CN5CCCC5)cnc4c3C)cc2)s1 (hydrate or solvate) [Example 119, 4-(5-acetyl-2-thienyl)-N-[8-methyl-3-(1-pyrrolidinylmethyl)-7-quinolinyl]benzamide]
The melting point of the first is higher: 206 to 208 °C for the first, 194 to 195 °C for the second.

First: Cc1c(NC(=O)c2ccc(OCc3ccc(F)cc3)cc2)ccc2cc(CN3CCCC3)cnc12 (hydrate or solvate) [Example 123, 4-[(4-fluorobenzyl)oxy]-N-[8-methyl-3-(1-pyrrolidinylmethyl)-7-quinolinyl]benzamide]
Second: Cc1c(NC(=O)c2ccc(-c3ccc(F)cc3)c(F)c2)ccc2cc(CN3CCCCC3)cnc12 (hydrate or solvate) [Example 176, 2,4′-difluoro-N-[8-methyl-3-(1-piperidinylmethyl)-7-quinolinyl][1,1′-biphenyl]-4-carboxamide]
The melting point of the first is higher: 177 to 178 °C for the first, 161 to 162 °C for the second.

Compared with `Cc1c(NC(=O)c2ccc(-c3ccc(Cl)cc3Cl)cc2F)ccc2cc(CN3CCCC3)cnc12` (hydrate or solvate) [Example 137, 2′,4′-dichloro-3-fluoro-N-[8-methyl-3-(1-pyrrolidinylmethyl)-7-quinolinyl][1,1′-biphenyl]-4-carboxamide], `Cc1c(NC(=O)c2ccc(-c3ccc(Cl)s3)cc2F)ccc2cc(CN3CCCC3)cnc12` (hydrate or solvate) [Example 143, 4-(5-chloro-2-thienyl)-2-fluoro-N-[8-methyl-3-(1-pyrrolidinylmethyl)-7-quinolinyl]benzamide] is lower in melting point: 162 to 163 °C for the first, 160 to 162 °C for the second.

First: Cc1c(NC(=O)c2ccc(-c3ccc(C(F)(F)F)cc3)cc2F)ccc2cc(CN3CCCC3)cnc12 (hydrate or solvate) [Example 138, 3-fluoro-N-[8-methyl-3-(1-pyrrolidinylmethyl)-7-quinolinyl]-4′-(trifluoromethyl)[1,1′-biphenyl]-4-carboxamide]
Second: Cc1c(NC(=O)c2ccc(-c3ccccc3)cc2F)ccc2cc(CN3CCCCC3)cnc12 (hydrate or solvate) [Example 169, 3-fluoro-N-[8-methyl-3-(1-piperidinylmethyl)-7-quinolinyl][1,1′-biphenyl]-4-carboxamide]
The melting point of the first is higher: 202 to 203 °C for the first, 187 to 188 °C for the second.

First: Cc1c(NC(=O)c2ccc(-c3ccc4c(c3)OCO4)cc2F)ccc2cc(CN3CCCC3)cnc12 (hydrate or solvate) [Example 141, 4-(1,3-benzodioxol-5-yl)-2-fluoro-N-[8-methyl-3-(1-pyrrolidinylmethyl)-7-quinolinyl]benzamide]
Second: Cc1c(NC(=O)c2ccc(-c3ccccc3)cc2F)ccc2cc(CN3CCCCCC3)cnc12 (hydrate or solvate) [Example 183, N-[3-(1-azepanylmethyl)-8-methyl-7-quinolinyl]-3-fluoro[1,1′-biphenyl]-4-carboxamide]
The melting point of the first is higher: 181 to 182 °C for the first, 151 to 153 °C for the second.

First: Cc1c(NC(=O)c2ccc(-c3ccc(Cl)s3)cc2F)ccc2cc(CN3CCCCC3)cnc12 (hydrate or solvate) [Example 172, 4-(5-chloro-2-thienyl)-2-fluoro-N-[8-methyl-3-(1-piperidinylmethyl)-7-quinolinyl]benzamide]
Second: Cc1c(NC(=O)c2ccc(-c3ccc(Cl)s3)cc2F)ccc2cc(CN3CCCCCC3)cnc12 (hydrate or solvate) [Example 186, N-[3-(1-azepanylmethyl)-8-methyl-7-quinolinyl]-4-(5-chloro-2-thienyl)-2-fluorobenzamide]
The melting point of the first is higher: 205 to 206 °C for the first, 166 to 167 °C for the second.

First: Cc1c(NC(=O)c2ccc(-c3ccccc3)c(F)c2)ccc2cc(CN3CCCCC3)cnc12 (hydrate or solvate) [Example 175, 2-fluoro-N-[8-methyl-3-(1-piperidinylmethyl)-7-quinolinyl][1,1′-biphenyl]-4-carboxamide]
Second: Cc1c(NC(=O)c2ccc(-c3ccccc3)c(F)c2)ccc2cc(CN3CCCCCC3)cnc12 (hydrate or solvate) [Example 188, N-[3-(1-azepanylmethyl)-8-methyl-7-quinolinyl]-2-fluoro[1,1′-biphenyl]-4-carboxamide]
The melting point of the first is higher: 138 to 139 °C for the first, 129 to 130 °C for the second.

First: Cc1c(NC(=O)c2ccc(-c3ccc(Cl)s3)cc2)ccc2cc(CN3CCCCCC3)cnc12 (hydrate or solvate) [Example 181, N-[3-(1-azepanylmethyl)-8-methyl-7-quinolinyl]-4-(5-chloro-2-thienyl)benzamide]
Second: Cc1c(NC(=O)c2ccc(-c3ccc(F)cc3)c(F)c2)ccc2cc(CN3CCCCCC3)cnc12 (hydrate or solvate) [Example 189, N-[3-(1-azepanylmethyl)-8-methyl-7-quinolinyl]-2,4′-difluoro[1,1′-biphenyl]-4-carboxamide]
The melting point of the first is higher: 186 to 187 °C for the first, 162 to 163 °C for the second.

First: COc1ccc(-c2ccc(C(=O)Nc3ccc4cc(CN5CCCCCC5)cnc4c3C)cc2F)cc1 (hydrate or solvate) [Example 190, N-[3-(1-azepanylmethyl)-8-methyl-7-quinolinyl]-2-fluoro-4′-methoxy[1,1′-biphenyl]-4-carboxamide]
Second: COc1ccc(-c2ccc(C(=O)Nc3ccc4cc(CN5CCCC5)cnc4c3)cc2)cc1 [Example 3, 4′-methoxy-N-[3-(1-pyrrolidinylmethyl)-7-quinolinyl][1,1′-biphenyl]-4-carboxamide]
The melting point of the first is lower: 160 to 161 °C for the first, 202 to 204 °C for the second.

Compared with `CN(C)Cc1cnc2cc(NC(=O)c3ccc(-c4ccc(Cl)cc4)cc3)ccc2c1` [Example 1, 4′-chloro-N-[3-[(dimethylamino)methyl]-7-quinolinyl][1,1′-biphenyl]-4-carboxamide], `O=C(Nc1ccc2cc(CN3CCCC3)cnc2c1)c1ccc(-c2ccc(Cl)cc2)cc1` [Example 6, 4′-chloro-N-[3-(1-pyrrolidinylmethyl)-7-quinolinyl][1,1′-biphenyl]-4-carboxamide] is lower in melting point: 236 to 238 °C for the first, 217 to 220 °C for the second.

First: O=C(Nc1ccc2cc(CN3CCCC3)cnc2c1)c1ccc(-c2ccccc2)cc1 [Example 2, N-[3-(1-pyrrolidinylmethyl)-7-quinolinyl][1,1′-biphenyl]-4-carboxamide]
Second: O=C(Nc1ccc2cc(CN3CCCC3)cnc2c1)c1ccc(-c2ccc(F)cc2)cc1 [Example 4, 4′-fluoro-N-[3-(1-pyrrolidinylmethyl)-7-quinolinyl][1,1′-biphenyl]-4-carboxamide]
The melting point of the first is lower: 192 to 194 °C for the first, 210 to 212 °C for the second.

Compared with `Cc1ccc(-c2ccc(C(=O)Nc3ccc4cc(CN5CCCC5)cnc4c3)cc2)cc1` [Example 5, 4′-methyl-N-[3-(1-pyrrolidinylmethyl)-7-quinolinyl][1,1′-biphenyl]-4-carboxamide], `Cc1ccc(-c2ccc(C(=O)Nc3ccc4cc(CN5CCCC5)cnc4c3)cn2)cc1` [Example 10, 6-(4-methylphenyl)-N-[3-(1-pyrrolidinylmethyl)-7-quinolinyl]nicotinamide] is higher in melting point: 206 to 208 °C for the first, 226 to 228 °C for the second.

First: O=C(Nc1ccc2cc(CN3CCCC3)cnc2c1)c1ccc(-c2ccccc2)nc1 [Example 7, 6-phenyl-N-[3-(1-pyrrolidinylmethyl)-7-quinolinyl]nicotinamide]
Second: O=C(Nc1ccc2cc(CN3CCCC3)cnc2c1)c1ccc(-c2ccc(F)cc2)nc1 [Example 9, 6-(4-fluorophenyl)-N-[3-(1-pyrrolidinylmethyl)-7-quinolinyl]nicotinamide]
The melting point of the first is lower: 208 to 210 °C for the first, 218 to 220 °C for the second.

First: O=C(Nc1ccc2cc(CN3CCCC3)cnc2c1)c1ccc(-c2ccc(Cl)cc2)nc1 [Example 11, 6-(4-chlorophenyl)-N-[3-(1-pyrrolidinylmethyl)-7-quinolinyl]nicotinamide]
Second: O=C(Nc1ccc2cc(CN3CCCC3)cnc2c1)N1CCC(c2ccc(F)cc2)CC1 [Example 14, 4-(4-fluorophenyl)-N-[3-(1-pyrrolidinylmethyl)-7-quinolinyl]-1-piperidine carboxamide]
The melting point of the first is lower: 223 to 225 °C for the first, 239 to 241 °C for the second.

First: O=C(Nc1ccc2cc(CN3CCCC3)cnc2c1)N1CCC(c2ccccc2)CC1 [Example 12, 4-phenyl-N-[3-(1-pyrrolidinylmethyl)-7-quinolinyl]-1-piperidine carboxamide]
Second: COc1ccc(C2CCN(C(=O)Nc3ccc4cc(CN5CCCC5)cnc4c3)CC2)cc1 [Example 13, 4-(4-methoxyphenyl)-N-[3-(1-pyrrolidinylmethyl)-7-quinolinyl]-1-piperidine carboxamide]
The melting point of the first is lower: 222 to 224 °C for the first, 241 to 243 °C for the second.
